The values below come from article PMC10515640, “Structure-Based Optimization of Covalent, Small-Molecule Stabilizers of the 14-3-3σ/ERα Protein–Protein Interaction from Nonselective Fragments” (Journal of the American Chemical Society, 2023).

pEC50: −log10 of the molar value. A value given as a limit tells only on which side of the number the result lay.

Assay [1] has as its target T1, 14-3-3σ (Homo sapiens, UniProt P31947).
T1 construct: The 14-3-3 σ isoform (full-length for mass spectrometry and fluorescence anisotropy assays, ΔC for crystallography); made in house; host or cells: E. coli Rosetta 2(DE3)pLysS, pPROEX HTb vector
T1 sequence (P31947 1-248): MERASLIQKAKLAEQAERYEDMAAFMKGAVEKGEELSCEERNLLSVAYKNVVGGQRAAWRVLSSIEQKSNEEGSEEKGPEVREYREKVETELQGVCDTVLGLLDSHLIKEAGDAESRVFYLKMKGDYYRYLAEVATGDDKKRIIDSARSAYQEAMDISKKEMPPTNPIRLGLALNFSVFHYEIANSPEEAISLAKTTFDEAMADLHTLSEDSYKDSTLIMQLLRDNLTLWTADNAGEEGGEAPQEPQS
Description: Mass spectrometry dose response, compound binding to 14-3-3σ in the absence of peptide (apo). The settings on record: 100 nM compound, 100 nM 14-3-3σ. The procedure, abridged:
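Covalent binding of compounds to Cys38 of full-length wild type human 14-3-3σ (100 nM) was measured by LC-MS without peptide present. Compounds from 50 mM DMSO stocks were serially diluted 3-fold and 1000 nl transferred to plates in TRIS buffer (10 mM, pH 8.0), 50 μl per well. Samples were desalted on a BEH-C4 column and analysed on a Xevo G2-XS Q-Tof at several time points.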

Assay [2] addresses T2, 14-3-3σ/ERα (Homo sapiens, UniProt P03372+P31947).
T2 construct: The 14-3-3 σ isoform (full-length for mass spectrometry and fluorescence anisotropy assays, ΔC for crystallography); made in house; host or cells: E. coli Rosetta 2(DE3)pLysS, pPROEX HTb vector
Briefly: Mass spectrometry dose response, compound binding to 14-3-3σ in the presence of ERα phosphopeptide. To be noted: 100 nM compound, 100 nM 14-3-3σ, ERα-peptide 2 µM. The procedure, abridged:
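Covalent labeling of Cys38 on 14-3-3σ was tracked by LC-MS on a Waters Acquity UPLC/Xevo G2-XS Q-Tof, with samples desalted on a Protein BEH-C4 column. Full-length wild type 14-3-3σ (100 nM) plus ERα phosphopeptide was mixed with compound in 10 mM TRIS, pH 8.0, at 50 μl per well. Percent bound was measured at several time points.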

For assay [3], the target named is T3, 14-3-3σ/C-RAF (Homo sapiens, UniProt P31947).
T3 construct: The 14-3-3 σ isoform (full-length for mass spectrometry and fluorescence anisotropy assays, ΔC for crystallography); made in house; host or cells: E. coli Rosetta 2(DE3)pLysS, pPROEX HTb vector
T3 sequence (P31947 1-248): T1 sequence (P31947 1-248)
Description: Mass spectrometry dose response, compound binding to 14-3-3σ in the presence of C-RAF phosphopeptide. The settings on record: 100 nM compound, 100 nM 14-3-3σ, C-RAF peptide 18 µM. The procedure, abridged:
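Covalent binding of compounds to the native Cys38 of 14-3-3σ was monitored by LC-MS on a Waters Acquity UPLC/Xevo G2-XS Q-Tof, with samples desalted on a BEH-C4 column. Full-length wild type 14-3-3σ (100 nM) with C-RAF peptide in TRIS buffer (10 mM, pH 8.0) was incubated with compound dose series at room temperature.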

Assay [4] has as its target T2, 14-3-3σ/ERα. Briefly: Fluorescence anisotropy compound titration, FAM-labeled ERα peptide. In kind it is binding. To be noted: 10 nM ERα-FAM labeled peptide, 1 µM 14-3-3σ, overnight incubation (24 h); read-out: EC50 value ERα (FA compound titration). The procedure, abridged: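 Fluorescence anisotropy compound titration measuring stabilization of the 14-3-3σ/ERα interaction: compounds were titrated in a 2-fold dilution series (starting at 500 or 1000 µM) into a mix of 10 nM fluorescein-labeled ERα peptide and 1 µM 14-3-3σ (about EC25 of the complex) in HEPES buffer with 1% DMSO, read after overnight incubation at room temperature; EC50 from 4PL fitting.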

In assay [5] the target is T2, 14-3-3σ/ERα. Described as above. The settings on record: labeling in MS assay, peptide binding in FA assay.

For the compound `CC(C)(Nc1ccccc1)C(=O)N1CCC(CNC(=O)CCl)CC1` [compound 85], the “Percentage (%) bound of compound to 14-3-3σ, APO 1h” value in assay [1] (1h) is listed as 0%. In assay [1] (8h), the “Percentage (%) bound of compound to 14-3-3σ, APO 8h” value was determined as 0%. In addition, in assay [1] (16h), the “Percentage (%) bound of compound to 14-3-3σ, APO 16h” value came to 0%. Besides, in assay [1] (24h), the “Percentage (%) bound of compound to 14-3-3σ, APO 24h” value was determined as 0%. For the same compound, in assay [2] (1h), the “Percentage (%) bound of compound to 14-3-3σ, ERα 1h” value came out at 0.9%. The “Percentage (%) bound of compound to 14-3-3σ, ERα 8h” value in assay [2] (8h) stood at 1.2%. Also, the “Percentage (%) bound of compound to 14-3-3σ, ERα 16h” value in assay [2] (16h) was determined as 1.5%. In assay [2] (24h), the “Percentage (%) bound of compound to 14-3-3σ, ERα 24h” value is recorded as 1.5%. For the same compound, in assay [3] (1h), the “Percentage (%) bound of compound to 14-3-3σ, CRAF 1h” value is 0.9%. For the same compound, the “Percentage (%) bound of compound to 14-3-3σ, CRAF 8h” value in assay [3] (8h) is reported as 1.2%. Besides, the “Percentage (%) bound of compound to 14-3-3σ, CRAF 24h” value in assay [3] (24h) and in assay [3] (head prints 24h) was 1.5% in each case. In addition, the pEC50 in assay [4] is under 3.82. Also, in assay [5], the “activity in MS and FA assays (in words)” value is “inactive”.
